Measurements reported in patent US20070026051A1, “Use of tripolidine in providing refreshedness on waking” (priority 2003, published 2007).

Key:
[1] = system: patients with temporary sleep disturbance; assay: Clinical trial: wrist actimetry (SDI, time to sleep onset); type: in vivo, human; parameters: SDI compared to placebo: dose or concentration left out as unconfirmed
Text: The efficacy of triprolidine in enabling a patient to feel refreshed or alert upon waking after taking triprolidine prior to sleeptime was investigated using patients with a history of sleep disorders and utilising triprolidine prepared in accordance with example 1.
(§1) The study herein utilised the following determination methods:— • (a) Karolinska scale as defined in: Int. J. Neuroscience 52 29-37 (1990); and—validation: Sleep 17 (3) 236-41 (1994) • (b) Loughborough Sleep log as defined in: Sleep 17 (2) 146-159 (1994); and • Sleep 18 (2) 127-134 (1995) • (c) Actimetry—AW4 actimeters (Cambridge Neurotechnology) were worn continuously throughout the study. A button was pressed at night when the subject desired to go to sleep and again in the morning upon waking. The results of the actimeter study were analysed in the manner defined by Horne et al (Sleep, 17(2); 146-159). SDI % was calculated as follows:— SDI=Number of 30 second epochs with movement×100 • Number of 30 second epochs from total time spent in bed This is the measure of: • 1. The length of time it took to fall asleep • 2. Any awakenings throughout the sleep period • Expressed as a % of total time spent in bed. Study Objectives • To evaluate the effects of two doses of triprolidine compared with placebo. Study Design […]
Male and Female candidates aged 18 years and above were recruited to one of five research centres by means of local advertising. […]
In the trial, patients were tested during a seven day period and the results have been analysed for a mean of three days in the middle of this period. […]
(§2) Generally the treatment groups were well balanced in terms of the demographic data. Unless otherwise mentioned all group data was analysed using ANOVA. In two cases, namely, how the patient felt 15 minutes after awakening in the Loughborough Sleep Log and the Karolinska Sleepiness Scale at 20 minutes, the two variables were analysed using ANCOVA by including the weekend and the mean of Friday/Saturday/Sunday night as a covariate. […]

[2] = system: volunteers; conditions: single doses 10 mg or 20 mg sustained release at bedtime; cited from earlier work
[3] = system: patients with temporary sleep disturbance; assay: Clinical trial: Loughborough sleep log (subjective); type: in vivo, human; parameters: dose or concentration left out as unconfirmed; conditions: mean of the 3 nights, p<0.05
Text: as §1
Candidates were required to complete a questionnaire 15 minutes after awaking on the feeling of refreshedness assessed on a 5-point scale, the Loughborough sleep log.
Generally the treatment groups were well balanced in terms of the demographic data. Unless otherwise mentioned all group data was analysed using ANOVA. […]

[4] = system: patients with temporary sleep disturbance; assay: Clinical trial: Karolinska 9-point sleepiness scale; type: in vivo, human
Text: The study herein utilised the following determination methods:— • (a) Karolinska scale as defined in: Int. J. Neuroscience 52 29-37 (1990); and—validation: Sleep 17 (3) 236-41 (1994) • (b) Loughborough Sleep log as defined in: Sleep 17 (2) 146-159 (1994); and • Sleep 18 (2) 127-134 (1995) • (c) Actimetry—AW4 actimeters (Cambridge Neurotechnology) were worn continuously throughout the study. A button was pressed at night when the subject desired to go to sleep and again in the morning upon waking. The results of the actimeter study were analysed in the manner defined by Horne et al (Sleep, 17(2); 146-159). SDI % was calculated as follows:— SDI=Number of 30 second epochs with movement×100 • Number of 30 second epochs from total time spent in bed This is the measure of: • 1. The length of time it took to fall asleep • 2. Any awakenings throughout the sleep period • Expressed as a % of total time spent in bed. Study Objectives • To evaluate the effects of two doses of triprolidine compared with placebo. Study Design
A multiple-dose, placebo-controlled, parallel-group, double-blind, randomised study investigating the effects of 2.5 mg and 5 mg triprolidine in patients with temporary sleep disturbance.
Male and Female candidates aged 18 years and above were recruited to one of five research centres by means of local advertising. Candidates were screened by means of a telephone questionnaire and selected candidates invited for interview at the research centre. Key inclusion criteria used to select candidates for the study were: • A record of poor sleep at least 2 nights per week • A record of poor sleep for at least 1 week but not more than 3 months • Sleep disturbance not caused by underlying disease • No excess use of alcohol or drugs • Sleep disturbance affected daytime functioning
The candidates came to the research centre on Thursday or Friday and were fitted with a wrist actimeter (AW4 from Cambridge Technology) to establish a baseline measure for SDI and were provided with diary cards to record subjective assessments for the Loughborough Sleep Log and the Karolinska Sleepiness Scale. They returned to the investigational site on the Monday and were issued with the study compositions (2.5 mg triprolidine, 5 mg triprolidine or placebo). […]
as §2

[5] = both treatments (2.5 mg and 5 mg), every treatment night
[6] = 2.5 mg triprolidine, mean of the 3 nights

daytime sleepiness ([4]; either dose of triprolidine): lack of daytime sleepiness
Structure (SMILES): Cc1ccc(/C(=C\CN2CCCC2)c2ccccn2)cc1 [triprolidine]
SDI as compared with placebo [1, 5]: reduced | sleep latency onset as compared with placebo [1, 5]: reduced | SDI compared to placebo ([1]; triprolidine, mean of the 3 nights, p<0.01): significantly reduced | sleep onset latency (time required to fall asleep) compared with placebo [2]: did not significantly alter | total sleep time compared with placebo [2]: no effect | wakefulness during sleep compared with placebo [2]: no effect | feeling of refreshedness 15 minutes after waking vs placebo (Loughborough sleep log) [3]: more refreshed | percentage of people feeling alert, very alert or extremely alert on waking vs placebo (Karolinska log) [4, 6]: greater percentage | percentage of people feeling sleepy, some effort, or very sleepy, great effort to keep awake on waking vs placebo (Karolinska log) [4, 6]: lower percentage | residual hangover effects/morning grogginess [4, 6]: no evidence of residual hangover effects/morning grogginess
